In the NIST ThermoML archive (doi:10.1016/j.jct.2005.03.016):

Details: Liquid, Vibrating tube method

CCO [ethanol]
mass density [kg/m3]
Details | 100 kPa | 5000 kPa | 10000 kPa | 15000 kPa | 20000 kPa | 25000 kPa | 30000 kPa | 35000 kPa | 40000 kPa | 45000 kPa
283.15 K | 798 | 802 | 805.9 | 809.5 | 813 | 816.4 | 819.7 | 822.8 | 825.9 | 828.8
293.15 K | 789.5 | 793.7 | 797.8 | 801.6 | 805.3 | 808.9 | 812.3 | 815.6 | 818.7 | 821.8
303.15 K | 780.9 | 785.3 | 789.6 | 793.7 | 797.5 | 801.3 | 804.8 | 808.2 | 811.5 | 814.7
313.15 K | 772.1 | 776.8 | 781.3 | 785.6 | 789.6 | 793.5 | 797.2 | 800.8 | 804.2 | 807.6
323.15 K | 763.3 | 768.3 | 773 | 777.6 | 781.8 | 785.9 | 789.7 | 793.5 | 797.1 | 800.5
333.15 K | 754 | 759.3 | 764.3 | 769.1 | 773.6 | 777.8 | 781.9 | 785.8 | 789.5 | 793.1
343.15 K | 744.5 | 750.1 | 755.5 | 760.5 | 765.3 | 769.8 | 774 | 778.1 | 782 | 785.7
353.15 K | – | 740.6 | 746.4 | 751.7 | 756.7 | 761.5 | 766 | 770.2 | 774.3 | 778.2

CC1CCCCC1 [methylcyclohexane]
mass density [kg/m3]
Details | 100 kPa | 5000 kPa | 10000 kPa | 15000 kPa | 20000 kPa | 25000 kPa | 30000 kPa | 35000 kPa | 40000 kPa | 45000 kPa
283.15 K | 777.6 | 781.4 | 785.2 | 788.7 | 792.1 | 795.3 | 798.5 | 801.5 | 804.4 | 807.3
293.15 K | 769 | 773 | 777 | 780.7 | 784.3 | 787.8 | 791.1 | 794.2 | 797.3 | 800.2
303.15 K | 760.4 | 764.7 | 768.9 | 772.8 | 776.6 | 780.2 | 783.7 | 787 | 790.2 | 793.3
313.15 K | 751.7 | 756.2 | 760.7 | 764.8 | 768.8 | 772.7 | 776.3 | 779.8 | 783.1 | 786.4
323.15 K | 742.9 | 747.7 | 752.5 | 756.9 | 761.1 | 765.1 | 769 | 772.6 | 776.1 | 779.5
333.15 K | 733.9 | 739 | 744.1 | 748.8 | 753.3 | 757.5 | 761.5 | 765.4 | 769 | 772.5
343.15 K | 724.8 | 730.4 | 735.8 | 740.8 | 745.6 | 750 | 754.2 | 758.2 | 762.1 | 765.7
353.15 K | 715.7 | 721.7 | 727.4 | 732.8 | 737.8 | 742.5 | 747 | 751.2 | 755.2 | 759
